Assay results as given in patent US20190064177A1, “INCORPORATING COMPETITIVE BINDING INFORMATION INTO MOLECULAR ARRAY ANALYSIS TO GENERATE FUNCTION NETWORKS OF INTERACTIONS” (ARIZONA BOARD OF REGENTS ON BEHALF OF ARIZONA STATE …, priority 2017, published 2019).

Test system: diaphorase
Experiment: fluorescently labeled diaphorase binding to peptide array with or without excess FAD
Settings: 1 micromolar labeled diaphorase, excess FAD present; 65535 is detector saturation
Procedure: Measurements were performed in which diaphorase was bound to an array of about 126,000 unique sequences. The sequences were chosen simply to cover sequence space. 16 of the natural 20 amino acids were used to make up these sequences with C, I, M and T omitted. The diaphorase was fluorescently labeled and each peptide sequence feature was scanned and fluorescence recorded on the array. Diaphorase bound tightly to some peptides and not at all to others. Two different concentrations of diaphorase were used, 1 and 10 micromolar, and the diaphorase was either bound in the presence of excess FAD or not. […] Indeed the Pearson correlation coefficient between w/ and w/o FAD was >0.97, which actually speaks to the reproducibility of this dataset. However, there are some differences as shown on the scatter plot of FIG. 1. When one takes a ratio of the binding without FAD and the binding with FAD, one finds the following top 30 ratios (Table 1): Note that all these sequences end with a GSG linker sequence. Because there are two concentrations, one can easily check for consistency. Note that 65535 is detector saturation, so one has to ignore those values. For this reason, the lower concentration is used most of the time. […] It appears that this was some kind of error and was ignored in subsequent analysis. A similar conclusion can be made with the 7th highest value. Looking at the sequences, RW or at least R or K followed by a nonpolar or aromatic amino acid at the N-terminus. This is interesting as FAD is negatively charged, though the adenine in FAD looks a bit like tryptophan (see FIG. 2).

1 microM FAD (array fluorescence of bound diaphorase)	Sequence
4541.5	RLYPQGYGGSG [array peptide with C-terminal GSG linker]
1164.75	LDRLGEYQFSGSG [array peptide with C-terminal GSG linker]
10415	YSVDYWYQVDGSG [array peptide with C-terminal GSG linker]
2940.75	RNWYGGSG [array peptide with C-terminal GSG linker]
6638	VFGVLSQVARDGSG [array peptide with C-terminal GSG linker]
3614	RWSFPAKGGSG [array peptide with C-terminal GSG linker]
2199.25	RFKYPLDGGSG [array peptide with C-terminal GSG linker]
1727	EGYANKLLALFSGSG [array peptide with C-terminal GSG linker]
4093.5	RWRYYWKSEGSG [array peptide with C-terminal GSG linker]
7535.25	RYYPAFSGGSG [array peptide with C-terminal GSG linker]
3403	ELFGALFKGGSG [array peptide with C-terminal GSG linker]
3658	RWYKNGGSG [array peptide with C-terminal GSG linker]
1546	YNRNAKSSGGSG [array peptide with C-terminal GSG linker]
4143.5	LLGFLGGSG [array peptide with C-terminal GSG linker]
12347.25	VKDGNKHYWRVSGSG (VKDGANKHYWRVSGSG) [array peptide with C-terminal GSG linker]
2664.5	SVLEGYQAVFGGSG [array peptide with C-terminal GSG linker]
1604.25	YRFAQYKGQKDGSG [array peptide with C-terminal GSG linker]

Same assay, conditions: 1 micromolar labeled diaphorase, no FAD; 65535 is detector saturation

1 micro no FAD (array fluorescence of bound diaphorase)	Sequence
11912	RLYPQGYGGSG [array peptide with C-terminal GSG linker]
709.25	LDRLGEYQFSGSG [array peptide with C-terminal GSG linker]
1802.5	YSVDYWYQVDGSG [array peptide with C-terminal GSG linker]
7830.5	RNWYGGSG [array peptide with C-terminal GSG linker]
4250.5	VFGVLSQVARDGSG [array peptide with C-terminal GSG linker]
10002.75	RWSFPAKGGSG [array peptide with C-terminal GSG linker]
5764.75	RFKYPLDGGSG [array peptide with C-terminal GSG linker]
1034	EGYANKLLALFSGSG [array peptide with C-terminal GSG linker]
11043	RWRYYWKSEGSG [array peptide with C-terminal GSG linker]
21898	RYYPAFSGGSG [array peptide with C-terminal GSG linker]
2083.5	ELFGALFKGGSG [array peptide with C-terminal GSG linker]
10176.5	RWYKNGGSG [array peptide with C-terminal GSG linker]
4014	YNRNAKSSGGSG [array peptide with C-terminal GSG linker]
2317.75	LLGFLGGSG [array peptide with C-terminal GSG linker]
2221	VKDGNKHYWRVSGSG (VKDGANKHYWRVSGSG) [array peptide with C-terminal GSG linker]
1341.5	SVLEGYQAVFGGSG [array peptide with C-terminal GSG linker]
4467.75	YRFAQYKGQKDGSG [array peptide with C-terminal GSG linker]

Same assay, conditions: 10 micromolar labeled diaphorase, excess FAD present; 65535 is detector saturation

10 microM FAD (array fluorescence of bound diaphorase)	Sequence
61747	RLYPQGYGGSG [array peptide with C-terminal GSG linker]
7142.5	LDRLGEYQFSGSG [array peptide with C-terminal GSG linker]
19218.25	YSVDYWYQVDGSG [array peptide with C-terminal GSG linker]
48587	RNWYGGSG [array peptide with C-terminal GSG linker]
51495.5	VFGVLSQVARDGSG [array peptide with C-terminal GSG linker]
51221.25	RWSFPAKGGSG [array peptide with C-terminal GSG linker]
30389	RFKYPLDGGSG [array peptide with C-terminal GSG linker]
10408.25	EGYANKLLALFSGSG [array peptide with C-terminal GSG linker]
51412.25	RWRYYWKSEGSG [array peptide with C-terminal GSG linker]
65535	RYYPAFSGGSG [array peptide with C-terminal GSG linker]
25315	ELFGALFKGGSG [array peptide with C-terminal GSG linker]
46265.5	RWYKNGGSG [array peptide with C-terminal GSG linker]
18565.25	YNRNAKSSGGSG [array peptide with C-terminal GSG linker]
40264.25	LLGFLGGSG [array peptide with C-terminal GSG linker]
17803.5	VKDGNKHYWRVSGSG (VKDGANKHYWRVSGSG) [array peptide with C-terminal GSG linker]
21517.25	SVLEGYQAVFGGSG [array peptide with C-terminal GSG linker]
19933.75	YRFAQYKGQKDGSG [array peptide with C-terminal GSG linker]

Same assay, conditions: 10 micromolar labeled diaphorase, no FAD; 65535 is detector saturation

10 microM no FAD (array fluorescence of bound diaphorase)	Sequence
65535	RLYPQGYGGSG [array peptide with C-terminal GSG linker]
2995.75	LDRLGEYQFSGSG [array peptide with C-terminal GSG linker]
19784.75	YSVDYWYQVDGSG [array peptide with C-terminal GSG linker]
65535	RNWYGGSG [array peptide with C-terminal GSG linker]
26186.5	VFGVLSQVARDGSG [array peptide with C-terminal GSG linker]
65535	RWSFPAKGGSG [array peptide with C-terminal GSG linker]
55899.25	RFKYPLDGGSG [array peptide with C-terminal GSG linker]
6648	EGYANKLLALFSGSG [array peptide with C-terminal GSG linker]
65535	RWRYYWKSEGSG [array peptide with C-terminal GSG linker]
65535	RYYPAFSGGSG [array peptide with C-terminal GSG linker]
12943.5	ELFGALFKGGSG [array peptide with C-terminal GSG linker]
64775	RWYKNGGSG [array peptide with C-terminal GSG linker]
41333.25	YNRNAKSSGGSG [array peptide with C-terminal GSG linker]
26253	LLGFLGGSG [array peptide with C-terminal GSG linker]
20355.75	VKDGNKHYWRVSGSG (VKDGANKHYWRVSGSG) [array peptide with C-terminal GSG linker]
6065.25	SVLEGYQAVFGGSG [array peptide with C-terminal GSG linker]
56915	YRFAQYKGQKDGSG [array peptide with C-terminal GSG linker]

Same assay, conditions: ratio of binding without FAD to binding with FAD, 1 micromolar diaphorase

1 microM noFAD/FAD	Sequence
2.623	RLYPQGYGGSG [array peptide with C-terminal GSG linker]
0.6089	LDRLGEYQFSGSG [array peptide with C-terminal GSG linker]
0.1731	YSVDYWYQVDGSG [array peptide with C-terminal GSG linker]
2.663	RNWYGGSG [array peptide with C-terminal GSG linker]
0.6403	VFGVLSQVARDGSG [array peptide with C-terminal GSG linker]
2.768	RWSFPAKGGSG [array peptide with C-terminal GSG linker]
2.621	RFKYPLDGGSG [array peptide with C-terminal GSG linker]
0.5987	EGYANKLLALFSGSG [array peptide with C-terminal GSG linker]
2.698	RWRYYWKSEGSG [array peptide with C-terminal GSG linker]
2.906	RYYPAFSGGSG [array peptide with C-terminal GSG linker]
0.6123	ELFGALFKGGSG [array peptide with C-terminal GSG linker]
2.782	RWYKNGGSG [array peptide with C-terminal GSG linker]
2.596	YNRNAKSSGGSG [array peptide with C-terminal GSG linker]
0.5594	LLGFLGGSG [array peptide with C-terminal GSG linker]
0.1799	VKDGNKHYWRVSGSG (VKDGANKHYWRVSGSG) [array peptide with C-terminal GSG linker]
0.5035	SVLEGYQAVFGGSG [array peptide with C-terminal GSG linker]
2.785	YRFAQYKGQKDGSG [array peptide with C-terminal GSG linker]

Same assay, conditions: ratio of binding without FAD to binding with FAD, 10 micromolar diaphorase

10 microM noFAD/FAD	Sequence
1.061	RLYPQGYGGSG [array peptide with C-terminal GSG linker]
0.4194	LDRLGEYQFSGSG [array peptide with C-terminal GSG linker]
1.029	YSVDYWYQVDGSG [array peptide with C-terminal GSG linker]
1.349	RNWYGGSG [array peptide with C-terminal GSG linker]
0.5085	VFGVLSQVARDGSG [array peptide with C-terminal GSG linker]
1.279	RWSFPAKGGSG [array peptide with C-terminal GSG linker]
1.839	RFKYPLDGGSG [array peptide with C-terminal GSG linker]
0.6387	EGYANKLLALFSGSG [array peptide with C-terminal GSG linker]
1.275	RWRYYWKSEGSG [array peptide with C-terminal GSG linker]
1	RYYPAFSGGSG [array peptide with C-terminal GSG linker]
0.5113	ELFGALFKGGSG [array peptide with C-terminal GSG linker]
1.4	RWYKNGGSG [array peptide with C-terminal GSG linker]
2.226	YNRNAKSSGGSG [array peptide with C-terminal GSG linker]
0.652	LLGFLGGSG [array peptide with C-terminal GSG linker]
1.143	VKDGNKHYWRVSGSG (VKDGANKHYWRVSGSG) [array peptide with C-terminal GSG linker]
0.2819	SVLEGYQAVFGGSG [array peptide with C-terminal GSG linker]
2.855	YRFAQYKGQKDGSG [array peptide with C-terminal GSG linker]

Same assay, conditions: ratio without/with FAD calculated from measured binding values, 1 micromolar diaphorase

Meas. ratio	Sequence
2.62	RLYPQGYGGSG [array peptide with C-terminal GSG linker]
0.61	LDRLGEYQFSGSG [array peptide with C-terminal GSG linker]
0.17	YSVDYWYQVDGSG [array peptide with C-terminal GSG linker]
2.66	RNWYGGSG [array peptide with C-terminal GSG linker]
0.64	VFGVLSQVARDGSG [array peptide with C-terminal GSG linker]
2.77	RWSFPAKGGSG [array peptide with C-terminal GSG linker]
2.62	RFKYPLDGGSG [array peptide with C-terminal GSG linker]
0.60	EGYANKLLALFSGSG [array peptide with C-terminal GSG linker]
2.70	RWRYYWKSEGSG [array peptide with C-terminal GSG linker]
2.91	RYYPAFSGGSG [array peptide with C-terminal GSG linker]
0.61	ELFGALFKGGSG [array peptide with C-terminal GSG linker]
2.78	RWYKNGGSG [array peptide with C-terminal GSG linker]
2.60	YNRNAKSSGGSG [array peptide with C-terminal GSG linker]
0.56	LLGFLGGSG [array peptide with C-terminal GSG linker]
0.18	VKDGNKHYWRVSGSG (VKDGANKHYWRVSGSG) [array peptide with C-terminal GSG linker]
0.50	SVLEGYQAVFGGSG [array peptide with C-terminal GSG linker]
2.78	YRFAQYKGQKDGSG [array peptide with C-terminal GSG linker]
